These results are taken from patent publication US11331369B2, “Endoparasitic depsipeptides” (Zoetis Services LLC, priority 2017, dated 2022).

Format in all cases: cell-based
For experiment [1], the system named is third stage larvae of Haemonchus contortus. In words: Haemonchus contortus L3 (HcL3) Assay. The settings on record: 96 h, read-out: HcL3 Minimum Effective Dose (MED).
Experiment [2] concerns microfilariae of Dirofilaria immitis. Nature of the experiment: Dirofilaria immitis, Microfilaria (DiMF) In vitro Assay. The settings on record: 72 h, read-out: DiMF Minimum Effective Dose (MED), approximately 72 hours incubation, microfilariae assessed for survival or paralysis.
The subject of experiment [3] is 4th stage larvae (L4) of Dirofilaria immitis. Nature of the experiment: Dirofilaria immitis, L4 Stage (DiL4) In Vitro Assay. The following applies: Dirofilaria immitis, 72 h, read-out: DiL4 Minimum Effective Dose (MED), approximately 72 hours incubation; L4 larvae assessed for survival or paralysis.

Structures are written as SMILES. Where only a bound is given, the exact number is not on record here.

Take `COc1ccc(-c2ccnn2Cc2ccc(C[C@H]3OC(=O)[C@H](CC(C)C)N(C)C(=O)[C@@H](C)OC(=O)[C@H](CC(C)C)N(C)C(=O)[C@@H](Cc4ccc(Cn5nccc5-c5ccc(OC)nc5)cc4)OC(=O)[C@H](CC(C)C)N(C)C(=O)[C@@H](C)OC(=O)[C@H](CC(C)C)N(C)C3=O)cc2)cn1` [Example 1b-190, (3S,6R,9S,12R,15S,18R,21S,24R)-3,9,15,21-tetraisobutyl-6,18-bis(4-((5-(6-methoxypyridin-3-yl)-1H-pyrazol-1-yl)methyl)benzyl)-4,10,12,16,22,24-hexamethyl-1,7,13,19-tetraoxa-4,10,16,22-tetraazacyclotetracosan-2,5,8,11,14,17,20,23-octaone]: the minimal effective concentration in experiment [1] was 1 to 10 µM; in experiment [2] it was 0.001 to 0.01 µM; in experiment [3] it was 0.0001 to 0.001 µM.

For the molecule `CCOc1cnn(Cc2ccc(C[C@H]3OC(=O)[C@H](CC(C)C)N(C)C(=O)[C@@H](C)OC(=O)[C@H](CC(C)C)N(C)C(=O)[C@@H](Cc4ccc(Cn5ncc(OCC)c5C)cc4)OC(=O)[C@H](CC(C)C)N(C)C(=O)[C@@H](C)OC(=O)[C@H](CC(C)C)N(C)C3=O)cc2)c1C` [Example 1b-197, (3S,6R,9S,12R,15S,18R,21S,24R)-6,18-bis[[4-[(4-ethoxy-5-methyl-pyrazol-1-yl)methyl]phenyl]methyl]-3,9,15,21-tetraisobutyl-4,10,12,16,22,24-hexamethyl-1,7,13,19-tetraoxa-4,10,16,22-tetrazacyclotetracosane-2,5,8,11,14,17,20,23-octaone], the figures for the minimal effective concentration in experiment [1], in experiment [2] and in experiment [3] were 1 to 10 µM, 0.001 to 0.01 µM and 0.001 to 0.01 µM, respectively.

Regarding `COCOc1cnn(Cc2ccc(C[C@H]3OC(=O)[C@H](CC(C)C)N(C)C(=O)[C@@H](C)OC(=O)[C@H](CC(C)C)N(C)C(=O)[C@@H](Cc4ccc(Cn5cc(OCOC)cn5)cc4)OC(=O)[C@H](CC(C)C)N(C)C(=O)[C@@H](C)OC(=O)[C@H](CC(C)C)N(C)C3=O)cc2)c1` [Example 1b-201, (3S,6R,9S,12R,15S,18R,21S,24R)-3,9,15,21-tetraisobutyl-6,18-bis[[4-[[4-(methoxymethoxy)pyrazol-1-yl]methyl]phenyl]methyl]-4, 10,12,16,22,24-hexamethyl-1,7,13,19-tetraoxa-4,10,16,22-tetrazacyclotetracosane-2,5,8,11,14,17,20,23-octaone], the figures for the minimal effective concentration in experiment [1], in experiment [2] and in experiment [3] were 1 to 10 µM, 0.001 to 0.01 µM and 0.001 to 0.01 µM, respectively.

For the molecule `COCCOc1cnn(Cc2ccc(C[C@H]3OC(=O)[C@H](CC(C)C)N(C)C(=O)[C@@H](C)OC(=O)[C@H](CC(C)C)N(C)C(=O)[C@@H](Cc4ccc(Cn5cc(OCCOC)cn5)cc4)OC(=O)[C@H](CC(C)C)N(C)C(=O)[C@@H](C)OC(=O)[C@H](CC(C)C)N(C)C3=O)cc2)c1` [Example 1b-203, (3S,6R,9S,12R,15S,18R,21S,24R)-3,9,15,21-tetraisobutyl-6,18-bis[[4-[[4-(2-methoxyethoxy)pyrazol-1-yl]methyl]phenyl]methyl]-4,10,12,16,22,24-hexamethyl-1,7,13,19-tetraoxa-4,10,16,22-tetrazacyclotetracosane-2,5,8,11,14,17,20,23-octaone], the minimal effective concentration in experiment [1] was 10 to 100 µM; in experiment [2], 0.001 to 0.01 µM; in experiment [3], 0.001 to 0.01 µM.

On to `CC(C)C[C@H]1C(=O)O[C@H](Cc2ccc(Cn3nccc3CC3CC3)cc2)C(=O)N(C)[C@@H](CC(C)C)C(=O)O[C@H](C)C(=O)N(C)[C@@H](CC(C)C)C(=O)O[C@H](Cc2ccc(Cn3nccc3CC3CC3)cc2)C(=O)N(C)[C@@H](CC(C)C)C(=O)O[C@H](C)C(=O)N1C` [Example 1b-206, (3S,6R,9S,12R,15S,18R,21S,24R)-6,18-bis(4-((5-(cyclopropylmethyl)-1H-pyrazol-1-yl)methyl)benzyl)-3,9,15,21-tetraisobutyl-4,10,12,16,22,24-hexamethyl-1,7,13,19-tetraoxa-4,10,16,22-tetraazacyclotetracosan-2,5,8,11,14,17,20,23-octaone], for which the minimal effective concentration was at most 1 µM in experiment [1], 0.01 to 0.1 µM in experiment [2] and 0.0001 to 0.001 µM in experiment [3].

As for `Cc1ncc(-c2ccnn2Cc2ccc(C[C@H]3OC(=O)[C@H](CC(C)C)N(C)C(=O)[C@@H](C)OC(=O)[C@H](CC(C)C)N(C)C(=O)[C@@H](Cc4ccc(Cn5nccc5-c5cnc(C)nc5)cc4)OC(=O)[C@H](CC(C)C)N(C)C(=O)[C@@H](C)OC(=O)[C@H](CC(C)C)N(C)C3=O)cc2)cn1` [Example 1b-207, (3S,6R,9S,12R,15S,18R,21S,24R)-3,9,15,21-tetraisobutyl-4,6,10,16,18,22-hexamethyl-12,24-bis(4-((5-(2-methylpyrimidin-5-yl)-1H-pyrazol-1-yl)methyl)benzyl)-1,7,13,19-tetraoxa-4,10,16,22-tetraazacyclotetracosan-2,5,8,11,14,17,20,23-octaone], the minimal effective concentration in experiment [1] lay within 1 to 10 µM; in experiment [2] it was 0.001 to 0.01 µM; in experiment [3], 0.001 to 0.01 µM.

`CCC(C)c1ccnn1Cc1ccc(C[C@H]2OC(=O)[C@H](CC(C)C)N(C)C(=O)[C@@H](C)OC(=O)[C@H](CC(C)C)N(C)C(=O)[C@@H](Cc3ccc(Cn4nccc4C(C)CC)cc3)OC(=O)[C@H](CC(C)C)N(C)C(=O)[C@@H](C)OC(=O)[C@H](CC(C)C)N(C)C2=O)cc1` (stereo partly drawn) [Example 1b-210, (3S,6R,9S,12R,15S,18R,21S,24R)-6,18-bis(4-((5-(sec-butyl)-1H-pyrazol-1-yl)methyl)benzyl)-3,9,15,21-tetraisobutyl-4,10,12,16,22,24-hexamethyl-1,7,13,19-tetraoxa-4,10,16,22-tetraazacyclotetracosan-2,5,8,11,14,17,20,23-octaone]: the minimal effective concentration in experiment [1] is 1 to 10 µM; in experiment [2], 0.01 to 0.1 µM; in experiment [3], 0.0001 to 0.001 µM.

Turning to `CC(C)C[C@H]1C(=O)O[C@H](Cc2ccc(Cn3nccc3C3(F)CC3)cc2)C(=O)N(C)[C@@H](CC(C)C)C(=O)O[C@H](C)C(=O)N(C)[C@@H](CC(C)C)C(=O)O[C@H](Cc2ccc(Cn3nccc3C3(F)CC3)cc2)C(=O)N(C)[C@@H](CC(C)C)C(=O)O[C@H](C)C(=O)N1C` [Example 1b-215, (3S,6R,9S,12R,15S,18R,21S,24R)-6,18-bis(4-((5-(1-fluorocyclopropyl)-1H-pyrazol-1-yl)methyl)benzyl)-3,9,15,21-tetraisobutyl-4,10,12,16,22,24-hexamethyl-1,7,13,19-tetraoxa-4,10,16,22-tetraazacyclotetracosan-2,5,8,11,14,17,20,23-octaone], the minimal effective concentration is at most 1 µM in experiment [1], 0.001 to 0.01 µM in experiment [2] and 0.0001 to 0.001 µM in experiment [3].

With `CC(C)C[C@H]1C(=O)O[C@H](Cc2ccc(Cn3nccc3C3CC3(F)F)cc2)C(=O)N(C)[C@@H](CC(C)C)C(=O)O[C@H](C)C(=O)N(C)[C@@H](CC(C)C)C(=O)O[C@H](Cc2ccc(Cn3nccc3C3CC3(F)F)cc2)C(=O)N(C)[C@@H](CC(C)C)C(=O)O[C@H](C)C(=O)N1C` (stereo partly drawn) [Example 1b-216, (3S,6R,9S,12R,15S,18R,21S,24R)-6,18-bis(4-((5-(2,2-difluorocyclopropyl)-1H-pyrazol-1-yl)methyl)benzyl)-3,9,15,21-tetraisobutyl-4,10,12,16,22,24-hexamethyl-1,7,13,19-tetraoxa-4,10,16,22-tetraazacyclotetracosan-2,5,8,11,14,17,20,23-octaone], the minimal effective concentration in experiment [1] is at most 1 µM; in experiment [2] it was 0.001 to 0.01 µM; in experiment [3], at most 0.0001 µM.

As for `CC(C)C[C@H]1C(=O)O[C@H](Cc2ccc(Cn3nccc3C3(Cl)CC3)cc2)C(=O)N(C)[C@@H](CC(C)C)C(=O)O[C@H](C)C(=O)N(C)[C@@H](CC(C)C)C(=O)O[C@H](Cc2ccc(Cn3nccc3C3(Cl)CC3)cc2)C(=O)N(C)[C@@H](CC(C)C)C(=O)O[C@H](C)C(=O)N1C` [Example 1b-217, (3S,6R,9S,12R,15S,18R,21S,24R)-6,18-bis(4-((5-(1-chlorocyclopropyl)-1H-pyrazol-1-yl)methyl)benzyl)-3,9,15,21-tetraisobutyl-4,10,12,16,22,24-hexamethyl-1,7,13,19-tetraoxa-4,10,16,22-tetraazacyclotetracosan-2,5,8,11,14,17,20,23-octaone], the minimal effective concentration in experiment [1] was at most 1 µM; in experiment [2] it was 0.01 to 0.1 µM; in experiment [3], 0.0001 to 0.001 µM.

As to `CC(C)C[C@H]1C(=O)O[C@H](Cc2ccc(Cn3nccc3C3(C)CC3)cc2)C(=O)N(C)[C@@H](CC(C)C)C(=O)O[C@H](C)C(=O)N(C)[C@@H](CC(C)C)C(=O)O[C@H](Cc2ccc(Cn3nccc3C3(C)CC3)cc2)C(=O)N(C)[C@@H](CC(C)C)C(=O)O[C@H](C)C(=O)N1C` [Example 1b-219, (3S,6R,9S,12R,15S,18R,21S,24R)-3,9,15,21-tetraisobutyl-4,6,10,16,18,22-hexamethyl-12,24-bis(4-((5-(1-methylcyclopropyl)-1H-pyrazol-1-yl)methyl)benzyl)-1,7,13,19-tetraoxa-4,10,16,22-tetraazacyclotetracosan-2,5,8,11,14,17,20,23-octaone], the minimal effective concentration is at most 1 µM in experiment [1], 0.01 to 0.1 µM in experiment [2] and 0.0001 to 0.001 µM in experiment [3].

As for `COC(C)(C)c1ccnn1Cc1ccc(C[C@H]2OC(=O)[C@H](CC(C)C)N(C)C(=O)[C@@H](C)OC(=O)[C@H](CC(C)C)N(C)C(=O)[C@@H](Cc3ccc(Cn4nccc4C(C)(C)OC)cc3)OC(=O)[C@H](CC(C)C)N(C)C(=O)[C@@H](C)OC(=O)[C@H](CC(C)C)N(C)C2=O)cc1` [Example 1b-220, (3S,6R,9S,12R,15S,18R,21S,24R)-3,9,15,21-tetraisobutyl-6,18-bis(4-((5-(2-methoxypropan-2-yl)-1H-pyrazol-1-yl)methyl)benzyl)-4,10,12,16,22,24-hexamethyl-1,7,13,19-tetraoxa-4,10,16,22-tetraazacyclotetracosan-2,5,8,11,14,17,20,23-octaone], the minimal effective concentration fell in the range of 10 to 100 µM in experiment [1], 0.001 to 0.01 µM in experiment [2] and 0.001 to 0.01 µM in experiment [3].
